Measurements: patent US20210156844A1, “TMEM16A Modulation for Diagnostic or Therapeutic Use in Pulmonary Hypertension (PH)” (Bayer Aktiengesellschaft, priority 2017, published 2021)

Target: T1, TMEM16A (Homo sapiens, UniProt Q5XXA6)
T1 construct: endogenous in cells; host or cells: primary human PASMC from healthy donors and IPAH patients
T1 sequence (Q5XXA6 1-986): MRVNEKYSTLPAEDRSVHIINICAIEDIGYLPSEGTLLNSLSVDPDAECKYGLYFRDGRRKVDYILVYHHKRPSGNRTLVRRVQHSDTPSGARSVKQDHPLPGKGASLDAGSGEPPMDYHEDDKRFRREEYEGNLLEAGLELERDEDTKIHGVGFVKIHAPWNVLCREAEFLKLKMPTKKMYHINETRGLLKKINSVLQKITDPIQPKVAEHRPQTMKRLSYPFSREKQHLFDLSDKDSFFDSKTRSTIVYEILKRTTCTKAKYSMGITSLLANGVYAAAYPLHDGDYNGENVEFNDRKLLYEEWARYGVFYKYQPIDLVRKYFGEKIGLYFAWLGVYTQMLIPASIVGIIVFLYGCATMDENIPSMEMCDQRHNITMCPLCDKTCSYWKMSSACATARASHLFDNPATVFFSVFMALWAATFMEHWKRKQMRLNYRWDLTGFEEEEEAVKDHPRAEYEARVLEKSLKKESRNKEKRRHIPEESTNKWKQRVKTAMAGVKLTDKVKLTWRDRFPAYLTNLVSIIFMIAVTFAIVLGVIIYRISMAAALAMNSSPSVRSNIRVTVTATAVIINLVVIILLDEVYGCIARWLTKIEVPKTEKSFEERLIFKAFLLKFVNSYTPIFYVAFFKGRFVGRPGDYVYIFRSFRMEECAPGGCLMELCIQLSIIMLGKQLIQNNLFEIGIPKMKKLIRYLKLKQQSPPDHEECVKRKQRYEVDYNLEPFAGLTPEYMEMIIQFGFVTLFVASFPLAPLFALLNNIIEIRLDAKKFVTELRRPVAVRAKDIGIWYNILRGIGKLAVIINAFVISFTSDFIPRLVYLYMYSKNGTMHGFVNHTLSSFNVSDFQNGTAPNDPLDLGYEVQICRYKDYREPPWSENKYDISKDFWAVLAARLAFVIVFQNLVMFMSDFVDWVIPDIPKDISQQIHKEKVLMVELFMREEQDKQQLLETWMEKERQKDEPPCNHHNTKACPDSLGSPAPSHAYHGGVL
Assay: Measurement of whole-cell Ca2+-activated Cl- current (IClCa), voltage clamp, primary PASMC
Type: cell-based
Details: benzbromarone 30 μM; primary PASMC of both donors and IPAH patients
Method: For the measurement of whole-cell IClCa, PASMC grown in T-25 tissue culture flasks were freshly harvested with StemPro Accutase (Life Technologies), centrifuged (300 g, 5 min) and resuspended in Complete SMC Medium. PASMC were stored at 4° C. until use and were allowed to attach to glass coverslips for 15-30 min at room temperature before the measurements. Cells were perfused with a bath solution composed of (in mM) NaCl 150, glucose 10, HEPES 10, CaCl2 1, MgCl2 1, pH 7.4 (NaOH). The pipette solution contained (in mM) CsCl 110, TEA-Cl 20, EGTA 5, HEPES 10, Na2ATP 1, CaCl2 4.68, MgCl2 1, pH 7.2 (NaOH). The free Ca^2+ concentration of this solution was 2 μM as calculated with the MaxChelator software. In order to minimize K^+ current contamination of the recordings, after the formation of whole-cell configuration the bath solution was switched to a bath composed of (in mM) NaCl 140, glucose 10, HEPES 10, TEA-Cl 10, CaCl2 1, MgCl2 1, pH 7.4 (NaOH). In order to measure IClCa, the command potential was stepped from a 0 mV holding potential to −40, 0, +40, +80 and +120 mV for 1.5 s, allowing 0.5 s recovery time at the holding potential between each step. The average current measured between 750 and 1500 ms of each voltage step was plotted against the […]. […] Cells from the same batch that were cultured, harvested and recorded under normoxic conditions served as controls.

CCc1oc2ccccc2c1C(=O)c1cc(Br)c(O)c(Br)c1 [benzbromarone, (2-Ethyl-3-benzofuranyl)-(3,5-dibrom-4-hydroxyphenyl)ketone]
whole-cell IClCa: significantly decreased
